# Data from PubChem BioAssay AID1996.
# Details: buffer; pH 7.4; 200.0 µM
row,Structure (SMILES),solubility kinetic [µg/mL]
1,Cc1ccc2c(c1)C1CN(C)CCC1N2C(=S)Nc1ccc(OC(F)F)cc1 (stereo unspecified),44.8
2,Cc1cc(C)c(C(=O)COC(=O)CN2C(=O)NC3(CCCC3)C2=O)cc1C,> 55.9
3,O=C(c1c(F)cccc1Cl)N1CCN(c2ccccn2)CC1,> 48
4,Cl.O=C(NCCCn1ccnc1)c1ccccc1F,> 42.6
5,CN1CCN(CC/C=C2/c3ccccc3Sc3ccc(S(=O)(=O)N(C)C)cc32)CC1,> 66.5
6,CC[N+](CC)(CC)CC.[Cl-],20.3
7,O=C(O)C(Cc1ccccc1)N1C(=O)c2c(Cl)c(Cl)c(Cl)c(Cl)c2C1=O (stereo unspecified),> 65
8,Cl.NS(=O)(=O)c1ccc(CCNC/C=C/c2ccccc2)cc1,> 52.9
9,CC(=O)OCC(=O)Nc1c(C)cccc1C,> 33.2
10,CCOc1ccc(NC(=O)CN2C(=O)COc3ccccc32)cc1,5.1
11,CC1CCCCC1NC(=O)COC(=O)c1cc(=O)c2ccccc2o1 (stereo unspecified),> 51.5
12,O=C(O)Cn1cc(C(=O)C(F)(F)F)c2ccccc21,> 40.7
13,CCC(=O)c1ccc(OCC(=O)Nc2nc(C)cs2)cc1,8.9
14,CCc1ccc(S(=O)(=O)n2c(C)nc3ccccc32)cc1,40.3
15,CC(C)CCC1(C)NC(=O)N(CC(=O)c2ccc[nH]2)C1=O (stereo unspecified),36.1
16,CCCCNc1ncnc2sc3c(c12)CCN(CCC)C3,44.9
17,CCSc1ncccc1C(=O)N[C@@H](CCSC)C(=O)OC,36.1
18,COC(=O)c1c(C)oc(C)c1S(=O)(=O)N1CCCCC1,34.8
19,COCCNC(=O)C(OC(=O)c1ccco1)c1ccccc1F (stereo unspecified),> 48.2
20,Cc1nc(N(C)Cc2ccccc2)c2c(C)c(C)sc2n1,4.2
21,COc1cccc(OC)c1C(=O)Nc1cccc(S(=O)(=O)Nc2ccccc2Cl)c1,47.1
22,COc1ccccc1Nc1nc(NCc2ccco2)nc(N)c1[N+](=O)[O-],< 0.1
23,Cc1ccc(C2(c3noc(CN(C)CC4CCCCO4)n3)CCCC2)cc1 (stereo unspecified),21.2

row,Structure (SMILES),solubility kinetic [µg/mL]
1,Brc1ccc2c(c1)[C@H]1OCC[C@H]1[C@@H](c1cccs1)N2,1.4
2,CC(=O)c1cccc(NC(=O)C(CC(C)C)NC(=O)C2CCCCC2)c1 (stereo unspecified),20.2
3,O=C(O)/C=C/C(=O)Nc1ccc(N2CCOCC2)nc1N1CCOCC1,> 54.4
4,CCOc1ccc(OCc2ccc(C(=O)NC(C)C)o2)cc1,13.3
5,CCOC(=O)c1c(C)[nH]c(C(=O)COC(=O)c2cccnc2Cl)c1C,4.7
6,O=C1Cc2ccccc2C(=O)N1c1cccc(Cl)c1,> 40.8
7,CCCn1c(=O)c(C#N)cn(C2CC2)c1=O,32.4
8,O=C(CSc1cccc[n+]1[O-])Nc1ccc(Br)cc1Br,6.7
9,COc1ccc(S(=O)(=O)n2cnc3ccccc32)cc1OC,> 47.8
10,c1ccn2cc(-c3ccc4c(c3)OCCO4)nc2c1,> 37.8
11,CN(Cc1ccccc1)C(=O)c1cc2cc(F)ccc2[nH]1,1
12,COc1ccc(CCNC(=S)Nc2ccccc2)cc1,41.1
13,COc1ccc(CC(=O)OCC(=O)N2CCCC(C)C2)cc1 (stereo unspecified),> 45.8
14,Cc1nnc(SCC(=O)Nc2ccc([N+](=O)[O-])cc2)n1C,> 46.1
15,Cc1ccccc1-c1nc(-c2ccc(Br)o2)no1,1
16,COC(=O)c1ccc(Cn2cc(/C=C\[N+](=O)[O-])c3ccccc32)o1,1.6
17,COc1ccc(S(=O)(=O)N2CCOCC2)cc1NS(=O)(=O)c1ccc(F)c(F)c1,> 67.3
18,O=C(c1cccc(Cl)c1)N1CCN(Cc2ccccc2)CC1,47.1
19,COc1ccc(Cl)cc1NC(=S)NCCO,> 39.1
20,NC(=NC1CCCCC1)NS(=O)(=O)c1ccccc1,> 42.2
21,Cc1ccccc1C(=O)NCCCn1ccnc1,> 36.5
22,O=C(COc1ccc([N+](=O)[O-])cc1)Nc1ccccc1C(=O)NC1CC1,1.3
23,Cc1ccc(S(=O)(=O)CCN2CCN(c3ccccc3)CC2)cc1,45.7
